Reference: US7749996B2, “Heterotricyclic metalloprotease inhibitors” (Alantos Pharmaceutical Holdings, Inc., priority 2006, dated 2010)

Each molecule was assayed against T1, catalytic domain of MMP-13 enzyme (Homo sapiens, UniProt P45452) (assay: Assay for determining MMP-13 inhibition (fluorescent substrate)). Conditions: Table 1, activity group.
T1 construct: stock solution of catalytic domain of MMP-13 enzyme (produced by Alantos or commercially available from Invitek (Berlin), Cat.# 30100812); purchased Invitek (Berlin) 30100812
Type: biochemical
Protocol: (§1) The typical assay for MMP-13 activity is carried out in assay buffer comprised of 50 mM Tris, pH 7.5, 150 mM NaCl, 5 mM CaCl2 and 0.05% Brij-35. Different concentrations of tested compounds are prepared in assay buffer in 50 μL aliquots. […] The mixture of enzyme and compound in assay buffer is thoroughly mixed and incubated for 10 min at room temperature. […] The time-dependent increase in fluorescence is measured at the 320 nm excitation and 390 nm emission by automatic plate multireader. The IC50 values are calculated from the initial reaction rates.

SMILES | IC50 [nM]
Nc1c(N2CCc3ccc(CNC(=O)c4nc5sc6c(c5c(=O)[nH]4)CCC(c4ccccc4)C6)cc3C2)c(=O)c1=O (stereo not drawn) [2/146] | 100 to 20000
O=C1COc2ccc(CNC(=O)c3nc4sc5c(c4c(=O)[nH]3)CCCCCC5)cc2N1 [2/125] | < 100
O=C1COc2ccc(CNC(=O)c3nc4cc5ccccc5cc4c(=O)[nH]3)cc2N1 [39/20] | 100 to 20000
Cc1ccc(CNC(=O)C2CCc3sc4nc(C(=O)NCc5ccc6c(c5)NC(=O)CO6)[nH]c(=O)c4c32)cc1 (stereo not drawn) [2/174] | < 100
O=C(NCc1csc2ccccc12)c1nc2sc3c(c2c(=O)[nH]1)CCC3 [2/333] | 100 to 20000
O=C1COc2ccc(CNC(=O)c3nc4sc5c(c4c(=O)[nH]3)CNCC5)cc2N1 [15/5] | < 100
O=C(NCc1cccc(N2CCSCC2)c1)c1nc2sc3c(c2c(=O)[nH]1)CCC3 [2/528] | < 100
COC(=O)c1ccc(CNC(=O)C2CCc3sc4nc(C(=O)NCc5ccc6c(c5)NC(=O)CO6)[nH]c(=O)c4c32)cc1 (stereo not drawn) [2/169] | < 100
O=C(NCc1cccnc1)c1nc2sc3c(c2c(=O)[nH]1)CCC3 [2/309] | < 100
O=C(NCc1ccc(F)cc1)c1nc2sc3c(c2c(=O)[nH]1)CCC3 [2/290] | < 100
Cc1cccc(CNC(=O)c2nc3sc4c(c3c(=O)[nH]2)CCC4)c1 [2/383] | 100 to 20000
O=C1COc2ccc(CNC(=O)c3nc4sc5c(c4c(=O)[nH]3)CCC(c3ccccc3)C5)cc2N1 (stereo not drawn) [2/145] | < 100
Nc1c(N2CCc3ccc(CNC(=O)c4nc5sc6c(c5c(=O)[nH]4)CCCSC6)cc3C2)c(=O)c1=O [2/219] | < 100
COc1cccc(CNC(=O)c2nc3sc4c(c3c(=O)[nH]2)CCS(=O)(=O)C4)c1 [2/129] | < 100
Nc1c(N2CCc3ccc(CNC(=O)c4nc5sc6c(c5c(=O)[nH]4)C4CCN6CC4)cc3C2)c(=O)c1=O [2/90] | < 100
O=C(NCc1ccc(C(F)(F)F)nc1)c1nc2sc3c(c2c(=O)[nH]1)CCC3 [2/368] | 100 to 20000
Cc1cc(CNC(=O)c2nc3sc4c(c3c(=O)[nH]2)CCS(=O)(=O)C4)ccc1F [2/130] | 100 to 20000
Cc1cc(CNC(=O)c2nc3sc4c(c3c(=O)[nH]2)CCC4)ccc1F [2/313] | < 100
Nc1c(N2CCc3ccc(CNC(=O)c4nc5sc6c(c5c(=O)[nH]4)CCC6)cc3C2)c(=O)c1=O [2/52] | < 100
O=C(NC(c1ccccc1)c1ccccn1)c1nc2sc3c(c2c(=O)[nH]1)CCC3 (stereo not drawn) [2/328] | 100 to 20000
O=C(NCC1CC1)c1nc2sc3c(c2c(=O)[nH]1)CCC3 [2/291] | 100 to 20000
CS(=O)(=O)c1ccc(CNC(=O)c2nc3sc4c(c3c(=O)[nH]2)CCC4)cc1 [2/302] | 100 to 20000
O=C(NCc1ccc(F)c(OC(F)(F)F)c1)c1nc2sc3c(c2c(=O)[nH]1)CCC3 [2/332] | < 100
NC(=O)[C@@H]1CCC[C@@H]1NC(=O)c1nc2sc3c(c2c(=O)[nH]1)CCC3 [2/323] | 100 to 20000

SMILES | IC50 [nM]
NS(=O)(=O)c1ccc(CCNC(=O)c2nc3sc4c(c3c(=O)[nH]2)CCC4)cc1 [2/530] | 100 to 20000
C[C@@H](NC(=O)c1nc2sc3c(c2c(=O)[nH]1)CCC3)c1ccc(F)cc1 [2/319] | 100 to 20000
O=C(NCc1cccc(N2CCOCC2)c1)c1nc2sc3c(c2c(=O)[nH]1)CCC3 [2/359] | < 100
O=C(NCc1ccsc1)c1nc2sc3c(c2c(=O)[nH]1)CCC3 [2/344] | 100 to 20000
CC(C)(C)c1ccc2c(c1)sc1nc(C(=O)NCc3ccc4c(c3)NC(=O)CO4)[nH]c(=O)c12 [2/143] | 100 to 20000
O=C(CCc1ccc2sccc2c1)c1nc2sc3c(c2c(=O)[nH]1)CCC3 [2/352] | 100 to 20000
O=C1COc2cc(CNC(=O)c3nc4sc5ccccc5c4c(=O)[nH]3)ccc2N1 [2/24] | 100 to 20000
O=C(c1nc2sc3c(c2c(=O)[nH]1)CCC3)N1CC[C@H]2CCCC[C@@H]2C1 [2/305] | 100 to 20000
Nc1c(N2CCc3ccc(CNC(=O)c4nc5sc6ccccc6c5c(=O)[nH]4)cc3C2)c(=O)c1=O [2/67] | < 100
O=C1COc2ccc(CNC(=O)c3nc4sc5c(c4c(=O)[nH]3)CCCS5)cc2N1 [2/119] | < 100
Nc1c(N2CCc3ccc(CNC(=O)c4nc5sc6c(c5c(=O)[nH]4)CCCS6)cc3C2)c(=O)c1=O [2/120] | < 100
CC(C)(C)c1ccc2c(c1)sc1nc(C(=O)NCc3ccc4c(c3)CN(c3c(N)c(=O)c3=O)CC4)[nH]c(=O)c12 [2/144] | 100 to 20000
CC(C)NC(=O)c1nc2sc3c(c2c(=O)[nH]1)CCC3 [2/294] | 100 to 20000
NC(=O)[C@@H](NC(=O)c1nc2sc3c(c2c(=O)[nH]1)CCC3)c1ccccc1 [2/327] | 100 to 20000
O=C1COc2ccc(CNC(=O)c3nc4cc5c(cc4c(=O)[nH]3)CCC5)cc2N1 [2/246] | < 100
NS(=O)(=O)c1ccc(CNC(=O)c2nc3sc4c(c3c(=O)[nH]2)CCC4)s1 [2/367] | < 100
O=C1COc2cc(CNC(=O)c3nc4sc5c(c4c(=O)[nH]3)CCCC5)ccc2N1 [2/34] | 100 to 20000
COC(=O)C1SCCN1C(=O)c1nc2sc3c(c2c(=O)[nH]1)CCC3 (stereo not drawn) [2/307] | 100 to 20000
O=C(NCc1ccc2occc2c1)c1nc2sc3c(c2c(=O)[nH]1)CCC3 [2/354] | < 100
COC(=O)C1(CNC(=O)c2nc3sc4c(c3c(=O)[nH]2)CCC4)CCCCC1 [2/526] | < 100
O=C(NCc1ccc(CN2CCOCC2)cc1)c1nc2sc3c(c2c(=O)[nH]1)CCC3 [2/355] | 100 to 20000
O=C1COc2ccc(CNC(=O)c3nc4sc5c(c4c(=O)[nH]3)C3CCN5CC3)cc2N1 [2/89] | < 100
CN1CCc2c(sc3nc(C(=O)NCc4ccc5c(c4)NC(=O)CO5)[nH]c(=O)c23)C1 [2/29] | < 100
O=C1COc2ccc(CNC(=O)c3nc4sc5c(c4c(=O)[nH]3)CCCNC5)cc2N1 [15/4] | < 100

Each molecule was assayed against T2, activated MMP-8 enzyme (Homo sapiens, UniProt P22894) (assay: Assay for determining MMP-8 inhibition (fluorescent substrate)). Conditions: Table 2, activity group.
T2 construct: purchased Calbiochem 444229
Type: biochemical
Protocol: as §1, with “MMP-8” for “MMP-13”, “37° C.” for “room temperature.”, “by an” for “by”, “multireader at 37° C.” for “multireader.”

T2 sequence (P22894 101-467): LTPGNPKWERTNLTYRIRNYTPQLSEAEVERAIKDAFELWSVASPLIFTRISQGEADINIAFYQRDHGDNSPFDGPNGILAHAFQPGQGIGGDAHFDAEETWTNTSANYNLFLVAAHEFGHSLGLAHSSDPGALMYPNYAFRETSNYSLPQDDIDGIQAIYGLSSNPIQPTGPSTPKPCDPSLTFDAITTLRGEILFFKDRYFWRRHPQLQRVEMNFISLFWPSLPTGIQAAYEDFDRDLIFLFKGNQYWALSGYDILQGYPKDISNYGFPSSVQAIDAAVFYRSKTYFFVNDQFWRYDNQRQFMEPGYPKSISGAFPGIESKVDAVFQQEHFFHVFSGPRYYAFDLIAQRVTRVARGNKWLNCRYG

SMILES | IC50 [nM]
O=C1COc2ccc(CNC(=O)c3nc4sc5c(c4c(=O)[nH]3)CCCCCC5)cc2N1 [2/125] | < 250
O=C1COc2ccc(CNC(=O)c3nc4cc5ccccc5cc4c(=O)[nH]3)cc2N1 [39/20] | 250 to 20000
Cc1ccc(CNC(=O)C2CCc3sc4nc(C(=O)NCc5ccc6c(c5)NC(=O)CO6)[nH]c(=O)c4c32)cc1 (stereo not drawn) [2/174] | < 250
O=C(NCc1cccc(N2CCSCC2)c1)c1nc2sc3c(c2c(=O)[nH]1)CCC3 [2/528] | 250 to 20000
COC(=O)c1ccc(CNC(=O)C2CCc3sc4nc(C(=O)NCc5ccc6c(c5)NC(=O)CO6)[nH]c(=O)c4c32)cc1 (stereo not drawn) [2/169] | < 250
O=C(NCc1ccc(F)cc1)c1nc2sc3c(c2c(=O)[nH]1)CCC3 [2/290] | 250 to 20000
Cc1cccc(CNC(=O)c2nc3sc4c(c3c(=O)[nH]2)CCC4)c1 [2/383] | 250 to 20000
CC(=O)N1Cc2sc3nc(C(=O)NCc4ccc5c(c4)NC(=O)CO5)[nH]c(=O)c3c2C1 [Example 42] | 250 to 20000
COc1cccc(CNC(=O)c2nc3sc4c(c3c(=O)[nH]2)CCS(=O)(=O)C4)c1 [2/129] | 250 to 20000
O=C1COc2ccc(CNC(=O)c3nc4sc5c(c4c(=O)[nH]3)CCCSC5)cc2N1 [Example 2/218] | < 250
Cc1cc(CNC(=O)c2nc3sc4c(c3c(=O)[nH]2)CCS(=O)(=O)C4)ccc1F [2/130] | 250 to 20000
Cc1cc(CNC(=O)c2nc3sc4c(c3c(=O)[nH]2)CCC4)ccc1F [2/313] | < 250
Nc1c(N2CCc3ccc(CNC(=O)c4nc5sc6c(c5c(=O)[nH]4)CCC6)cc3C2)c(=O)c1=O [2/52] | < 250
COc1cccc(CNC(=O)c2nc3sc4c(c3c(=O)[nH]2)CCC4)c1 [2/387] | 250 to 20000
CCNC(=O)CC1CCCc2sc3nc(C(=O)NCc4ccc5c(c4)NC(=O)CO5)[nH]c(=O)c3c21 (stereo not drawn) [2/269] | < 250
O=C(NCc1ccc2c(c1)OCO2)c1nc2sc3c(c2c(=O)[nH]1)CCC3 [2/382] | 250 to 20000
O=C(NCc1cccc(N2CCOCC2)c1)c1nc2sc3c(c2c(=O)[nH]1)CCC3 [2/529] | 250 to 20000
O=C1COc2ccc(CNC(=O)c3nc4sc5c(c4c(=O)[nH]3)CN(Cc3ccccc3)C5)cc2N1 [Example 43/1] | < 250
O=C1COc2ccc(CNC(=O)c3nc4sc5c(c4c(=O)[nH]3)CCNCC5)cc2N1 [15/3] | 250 to 20000
C#CCNC(=O)C1CCc2sc3nc(C(=O)NCc4ccc5c(c4)NC(=O)CO5)[nH]c(=O)c3c21 (stereo not drawn) [2/223] | < 250
COC(=O)C1Cc2sc3nc(C(=O)NCc4ccc5c(c4)CN(c4c(N)c(=O)c4=O)CC5)[nH]c(=O)c3c2C1 (stereo not drawn) [2/230] | < 250
